Values joined by “and” are separate entries in the source; they are usually repeats but may differ in a detail not shown here. Identical values can stand only once. Numbered stars: 1 amine (or outer) side, 2 acyl side, 3 side chain; on linkers, the order of the positions; unused ones are H or OH. Square brackets hold non-standard residues; d marks the D form. Side chains are listed from the residue outwards. Peptide text beside a SMILES is read from it. * marks the point of attachment. NOTA(2S-Bn(4-NHCS)) = O=C(O)CN1CCN(CC(=O)O)C[C@H](Cc2ccc(NC(=S)*)cc2)N(CC(=O)O)CC1; X1 = O=C(O)CN1CCN(CC(=O)O)CC(Cc2ccc(NC(=S)*)cc2)N(CC(=O)O)CC1; DOTA = O=C(O)CN1CCN(CC(=O)O)CCN(CC(=O)*)CCN(CC(=O)O)CC1; DTPA = O=C(O)CN(CCN(CC(=O)O)CC(=O)O)CCN(CC(=O)O)CC(=O)*; NH(2-(imidazol-4-yl)ethyl) = c1ncc(CCN*)[nH]1; NOTA = O=C(O)CN1CCN(CC(=O)O)CCN(CC(=O)*)CC1; X2 = N[C@H](CC(=O)*)c1ccccc1Br; Suc = O=C(CCC(=O)[*:2])[*:1]; Dap = NC[C@H](N)C(=O)O; Aoc = NCCCCCCCC(=O)O
Legend:
AR42J肿瘤 = test: Biodistribution in BALB/c nude mice with s.c. AR42J tumours; type: in vivo, mouse; settings: 2 h p.i.
LS174T肿瘤 [1] = test: TF2-pretargeted biodistribution in BALB/c nude mice with s.c. LS174T tumours (Example 27)
[2] = Stability of labelled peptide in human serum at 37℃, HPLC; type: in vitro ADME; settings: for activity still attached to peptide: crude 18F labelling mixture (35% bound at start), pooled human serum 37℃; for 18F-labelled peptide stable in serum: purified 18F-labelled peptide
[3] = Biodistribution of unbound 18F fraction and purified [Al18F]IMP 449 in SCID mice, no pretargeting; type: in vivo, mouse; settings: 1 h p.i., no bsMAb
CaPan1异种移植物 = test: TF10-pretargeted biodistribution in nude mice with CaPan1 xenografts; type: in vivo, mouse; settings: 1 h after peptide, TF10 (162μg) pretargeted 18 h before
LS174 T异种移植物 = test: Biodistribution of 111In-IMP 449 and [Al18F]IMP 449 with or without TF2 in nude mice with sc LS174T xenografts; type: in vivo, mouse; settings: 1 h after peptide
RIIα二聚体 = RIIα二聚体 (Homo sapiens, UniProt P13861); settings: Stokka et al. 2006; cited from earlier work
[4] = Stability of Al18F-peptide complex in water (peptide labelling screen); type: physicochemical
[5] = in vivo
H1和H2组胺受体 = test: In vitro study on cell lines bearing H1 and H2 histamine receptors; type: cell-based
PC-3细胞 = type: binding; settings: first experiment, inhibitor 56 to 0.44 nM
LS174T肿瘤 [6] = test: PET/CT image quantification (region of interest ratios); settings: mouse, in vivo

RIIα二聚体, sequence (P13861 whole entry): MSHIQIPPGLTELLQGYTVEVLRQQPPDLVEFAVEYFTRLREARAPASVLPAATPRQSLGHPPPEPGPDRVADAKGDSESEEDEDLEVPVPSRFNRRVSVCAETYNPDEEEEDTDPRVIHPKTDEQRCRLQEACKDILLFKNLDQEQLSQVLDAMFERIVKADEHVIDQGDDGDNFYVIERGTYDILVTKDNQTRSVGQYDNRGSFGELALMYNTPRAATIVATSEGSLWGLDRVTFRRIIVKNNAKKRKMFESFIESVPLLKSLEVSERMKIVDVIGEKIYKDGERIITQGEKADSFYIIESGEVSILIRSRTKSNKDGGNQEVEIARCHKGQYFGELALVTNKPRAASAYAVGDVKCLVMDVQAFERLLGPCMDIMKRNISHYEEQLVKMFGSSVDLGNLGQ

Molecule: C[C@@H](O)[C@@H]1NC(=O)[C@H](CCCCN)NC(=O)[C@@H](Cc2c[nH]c3ccccc23)NC(=O)[C@H](Cc2ccccc2)NC(=O)[C@@H](NC(=O)[C@@H](Cc2ccccc2)NC(=O)CN2CCN(CC(=O)O)CCN(CC(=O)O)CC2)CSSC[C@@H](C(=O)N[C@H](CO)[C@@H](C)O)NC1=O [68Ga-IMP 466, metal not drawn]
- AR42J tumour uptake (AR42J肿瘤): 29.2±0.5 %ID/g
- kidney retention (AR42J肿瘤): 16.2±2.86 %ID/g
- lung uptake (AR42J肿瘤): 4.0±0.9 %ID/g

Molecule: NC(=O)[C@@H](CCCCNC(=O)CNC(=O)CCC(=O)NCCc1c[nH]cn1)NC(=O)[C@@H](CCC(=O)O)NC(=O)[C@@H](CCCCNC(=O)CNC(=O)CCC(=O)NCCc1c[nH]cn1)NC(=O)[C@@H](Cc1ccc(O)cc1)NC(=O)CN1CCN(CC(=O)O)CCN(CC(=O)O)CCN(CC(=O)O)CC1 [111In-IMP 288, metal not drawn] ({DOTA}-[dY][dK]([Gly-Suc-NH(2-(imidazol-4-yl)ethyl)])[dE][dK]([Gly-Suc-NH(2-(imidazol-4-yl)ethyl)])-NH2)
- kidney uptake (LS174T肿瘤 [1]; 0.1 nmol peptide, independent of bsMAb dose): 2 %ID/g

Molecule: C-NETA-琥珀酰-D-Lys(HSG)-D-Tyr-D-Lys(HSG)-NH2 [IMP 467]
- decomposition of 18F-labelled peptide in serum ([2]; HLB-purified, human serum 37℃, 5 h): 没有可检测的分解

Molecule: C[C@@H](NC(=S)Nc1ccc(C[C@H]2CN(CC(=O)O)CCN(CC(=O)O)CCN2CC(=O)O)cc1)C(=O)N[C@H](CCCCNC(=O)CNC(=O)CCC(=O)NCCc1c[nH]cn1)C(=O)N[C@H](Cc1ccc(O)cc1)C(=O)N[C@H](CCCCNC(=O)CNC(=O)CCC(=O)NCCc1c[nH]cn1)C(N)=O [[Al18F]IMP 449] ({NOTA(2S-Bn(4-NHCS))}-[dA][dK]([Gly-Suc-NH(2-(imidazol-4-yl)ethyl)])[dY][dK]([Gly-Suc-NH(2-(imidazol-4-yl)ethyl)])-NH2)
- 大肠 (large intestine) uptake, individual animals [3]: 0.167 %ID/g and 0.091 %ID/g and 0.094 %ID/g and 0.109 %ID/g
- 大肠 (large intestine) uptake, mean [3]: 0.115 %ID/g
- 小肠 (small intestine) uptake, individual animals [3]: 1.124 %ID/g and 1.247 %ID/g and 1.166 %ID/g and 1.624 %ID/g
- 小肠 (small intestine) uptake, mean [3]: 1.290 %ID/g
- 肌肉 (muscle) uptake, individual animals [3]: 0.077 %ID/g and 0.075 %ID/g
- 脊骨 (spine) uptake, individual animals [3]: 0.268 %ID/g
- CaPan1 tumour uptake (CaPan1异种移植物): 4.6±0.9 %ID/g
- 小肠 (small intestine) uptake, individual animals (LS174 T异种移植物; TF2 163.2μg 16 h before): 0.185 %ID/g
- 肌肉 (muscle) uptake, individual animals (LS174 T异种移植物; TF2 163.2μg 16 h before): 0.064 %ID/g
- 肝 (liver) uptake, individual animals (LS174 T异种移植物; TF2 163.2μg 16 h before): 0.196 %ID/g and 0.180 %ID/g
- 肝 (liver) uptake, mean (LS174 T异种移植物; TF2 163.2μg 16 h before): 0.172 %ID/g
- 股骨 (femur) uptake, mean (LS174 T异种移植物; TF2 163.2μg 16 h before): 0.625 %ID/g
- 肺 (lung) uptake, individual animals (LS174 T异种移植物; TF2 163.2μg 16 h before): 0.474 %ID/g and 0.230 %ID/g
- 胃 (stomach) uptake, mean (LS174 T异种移植物; TF2 163.2μg 16 h before): 0.218 %ID/g
- 脾 (spleen) uptake, individual animals (LS174 T异种移植物; TF2 163.2μg 16 h before): 0.239 %ID/g and 0.118 %ID/g and 0.140 %ID/g
- 大肠 (large intestine) uptake, individual animals (LS174 T异种移植物; no pretargeting antibody): 0.118 %ID/g
- 大肠 (large intestine) uptake, mean (LS174 T异种移植物; no pretargeting antibody): 0.072 %ID/g
- 肝 (liver) uptake, individual animals (LS174 T异种移植物; no pretargeting antibody): 0.141 %ID/g (2×) and 0.200 %ID/g and 0.185 %ID/g
- 股骨 (femur) uptake, individual animals (LS174 T异种移植物; no pretargeting antibody): 0.080 %ID/g
- 股骨 (femur) uptake, mean (LS174 T异种移植物; no pretargeting antibody): 0.100 %ID/g
- 脑 (brain) uptake, individual animals (LS174 T异种移植物; no pretargeting antibody): 0.077 %ID/g
- 脾 (spleen) uptake, mean (LS174 T异种移植物; no pretargeting antibody): 0.118 %ID/g
- LS174T tumour uptake (LS174T肿瘤 [1]; 6.0 nmol TF2 16 h before, 0.25 nmol peptide): 10.6±1.7 %ID/g
- bone uptake (LS174T肿瘤 [1]; mouse, in vivo): 0.54±0.2 %ID/g

Molecule: C[C@@H](O)[C@@H]1NC(=O)[C@H](CCCCN)NC(=O)[C@@H](Cc2c[nH]c3ccccc23)NC(=O)[C@H](Cc2ccccc2)NC(=O)[C@@H](NC(=O)[C@@H](Cc2ccccc2)NC(=O)CN2CCN(CC(=O)O)CCN(CC(=O)O)CC2)CSSC[C@@H](C(=O)N[C@H](CO)[C@@H](C)O)NC1=O [Al18F-IMP 466]
- AR42J tumour uptake (AR42J肿瘤): 28.3±5.7 %ID/g
- blood level (AR42J肿瘤): 0.10±0.07 %ID/g
- bone uptake (AR42J肿瘤): 0.33±0.07 %ID/g
- kidney retention (AR42J肿瘤): 9.96±1.27 %ID/g
- lung uptake (AR42J肿瘤): 1.9±0.4 %ID/g
- tumour-blood ratio (AR42J肿瘤): 299±88
- AR42J tumour uptake with excess unlabelled IMP 466 (AR42J肿瘤; receptor blocking): 8.6±0.7 %ID/g

Molecule: C[C@@H](NC(=S)Nc1ccc(CC2CN(CC(=O)O)CCN(CC(=O)O)CCN2CC(=O)O)cc1)C(=O)N[C@H](CCCCNC(=O)CNC(=O)CCC(=O)NCCc1c[nH]cn1)C(=O)N[C@H](Cc1ccc(O)cc1)C(=O)N[C@H](CCCCNC(=O)CNC(=O)CCC(=O)NCCc1c[nH]cn1)C(N)=O (stereo partly drawn) [111In-IMP 449, metal not drawn] (X1-[dA][dK]([Gly-Suc-NH(2-(imidazol-4-yl)ethyl)])[dY][dK]([Gly-Suc-NH(2-(imidazol-4-yl)ethyl)])-NH2)
- 大肠 (large intestine) uptake, individual animals (LS174 T异种移植物; no pretargeting antibody): 0.253 %ID/g
- 大肠 (large intestine) uptake, mean (LS174 T异种移植物; no pretargeting antibody): 0.237 %ID/g
- 胃 (stomach) uptake, individual animals (LS174 T异种移植物; no pretargeting antibody): 0.329 %ID/g
- 脑 (brain) uptake, individual animals (LS174 T异种移植物; no pretargeting antibody): 0.197 %ID/g

Molecule: DLIEEAASRIVDAVIEQVKAAGAY [Ht-31]
- PKA isoform preference (RIIα二聚体): 对PKA的RII同种型更大的亲和力

Molecule: NOTA-ITC苄基-D-Ala-D-Lys(HSG)-D-Tyr-D-Lys(HSG)-NH2 [IMP 449]
- activity still attached to peptide ([2]; 15 min): 9.8 %
- activity still attached to peptide ([2]; 1 h): 7.6 %
- decomposition of metal-18F-peptide complex ([2]; prepared with ascorbic acid as stabiliser, serum 37℃, 4 h): 没有可检测的分解
- 18F-labelled peptide stable in serum ([2]; human serum 37℃, at least 1 h): 91 %
- 18F-labelled peptide stable in serum ([2]; human serum 37℃, at least 4 h): 76 %

Molecule: C[C@@H](NC(=O)[C@H](CNC(=O)C[C@@H](N)c1ccccc1Br)NC(=O)CN(CCN(CCN(CC(=O)O)CC(=O)O)CC(=O)O)CC(=O)O)C(=O)N[C@H](CCCCNC(=O)CNC(=O)CCC(=O)NCCc1c[nH]cn1)C(=O)N[C@H](C)C(=O)N[C@H](CCCCNC(=O)CNC(=O)CCC(=O)NCCc1c[nH]cn1)C(N)=O [IMP 375, DTPA-Dpr(2-Br-Phe-CHNH2-CH2-CO-)-D-Ala-D-Lys(HSG)-D-Ala-D-Lys(HSG)-NH2] ({DTPA}-[Dap](X2)[dA][dK]([Gly-Suc-NH(2-(imidazol-4-yl)ethyl)])[dA][dK]([Gly-Suc-NH(2-(imidazol-4-yl)ethyl)])-NH2)
- stability of Al18F complex relative to IMP 272 [4]: 显著更稳定

Molecule: DOTA-D-Tyr-D-Lys(HSG)-D-Glu-D-Lys(HSG)-NH2 [IMP 288]
- histamine-related pharmacological activity in animals [5]: 没有与组胺组分相关的肽的药理活性
- antagonist or agonist activity at histamine receptors (H1和H2组胺受体): 没有拮抗或激动活性

Molecule: DTPA-Dpr(DTPA)-D-Ala-D-Lys(HSG)-D-Ala-D-Lys(HSG)-NH2 [IMP 333]
- blocking of 125I-BBN binding (PC-3细胞): 不能

Molecule: NC(=O)[C@@H](CCCCNC(=O)CNC(=O)CCC(=O)NCCc1c[nH]cn1)NC(=O)[C@@H](CCC(=O)O)NC(=O)[C@@H](CCCCNC(=O)CNC(=O)CCC(=O)NCCc1c[nH]cn1)NC(=O)[C@@H](Cc1ccc(O)cc1)NC(=O)CN1CCN(CC(=O)O)CCN(CC(=O)O)CCN(CC(=O)O)CC1 [68Ga-IMP 288, metal not drawn] ({DOTA}-[dY][dK]([Gly-Suc-NH(2-(imidazol-4-yl)ethyl)])[dE][dK]([Gly-Suc-NH(2-(imidazol-4-yl)ethyl)])-NH2)
- inflamed muscle-background ratio in PET image (LS174T肿瘤 [6]): 8.9
- tumour-inflamed tissue ratio in PET image (LS174T肿瘤 [6]): 5.4
- LS174T tumour uptake without TF2 pretargeting (LS174T肿瘤 [1]; 1 h p.i.): 0.20±0.03 %ID/g
- inflamed muscle-blood ratio (LS174T肿瘤 [1]; mouse, in vivo): 5.9±2.9
- tumour-inflamed muscle ratio (LS174T肿瘤 [1]; mouse, in vivo): 12.5±2.1

Molecule: LEQYANQLADQIIKEATE [RIAD]
- PKA isoform preference (RIIα二聚体): 对RI更大的亲和力

Molecule: FEELAWKIAKMIWSDVFQQC [PV-38]
- PKA isoform preference (RIIα二聚体): 对RI更大的亲和力

Molecule: CSCC[C@H](NC(=O)[C@H](CC(C)C)NC(=O)[C@H](Cc1c[nH]cn1)NC(=O)CNC(=O)[C@@H](NC(=O)[C@H](C)NC(=O)[C@H](Cc1c[nH]c2ccccc12)NC(=O)[C@@H](NC(=O)[C@H](Cc1c[nH]c2ccccc12)NC(=O)[C@H](CCC(N)=O)NC(=O)CCCCCCCNC(=O)CN1CCN(CC(=O)O)CCN(CC(=O)O)CC1)C(C)C)C(C)C)C(N)=O [IMP 468] ({NOTA-Aoc}-QWVWAVGHLM-NH2)
- blocking of 125I-BBN binding (PC-3细胞): 阻断125I-BBN的结合

Reference: patent publication CN102066974A, “用于蛋白、肽和其他分子的f-18标记的改进方法和组合物” (Immunomedics Inc, priority 2008, dated 2011)
